Here are results for 8 compounds from US20090036821A1 (priority 2005, published 2009).

Structures can show the parent of a compound that is named as a salt. Where two headings read alike, the source gives them in different places.

The conditions of data set [1]: for Iontophoretic flux of nicotine versus passive delivery of nicotine base: 500 mM citrate buffer with 50 mM NaCl, current terminated after 4 hours, FIG. 3; for Flux of nicotine after termination of current: current terminated at 4 hrs, 50 mM HEPES, FIG. 6; for Lagtime / Flux: iontophoresis (ITP), donor pH 5.5, 50 mM HEPES; for Flux: steady state when current is present, 0.5 mA/sq.cm; for Flux of nicotine, iontophoresis of salt versus passive permeation of nicotine base / Lagtime during iontophoresis versus passive permeation of nicotine base: iontophoresis at pH 5.5 versus passive base pH 8, FIG. 8. The method, then:
The following methodology was employed in the examples described herein: Dermatomed human skin stored at −80° C. was thawed just prior to use. Each permeation experiment consisted of four replicates. The skin for each replicate was obtained from a different donor so that the variation was randomized. Skin was mounted on Valia-Chien (horizontal) diffusion cells for these in vitro permeation studies, with stratum corneum side facing the donor side. The receptor compartment was filled with pH 7.4 phosphate buffer (50 mM). […] Prior to use, both donor and receptor solutions were degassed by helium sparging. The temperature of the water bath was set to 32° C. Both donor and receptor compartments were continuously stirred. For iontophoresis, silver wire was used as the anode in the donor compartment and silver/silver chloride as cathode in the receptor compartment. A current of 0.5 mA/sq.cm was applied for 4 hours. Samples taken periodically from the receptor compartment were analyzed by HPLC assay. An Xterra RP18 column was used and the detection wavelength was 261 nm. The mobile phase was 85:15 buffer:acetonitrile, pumped at 1 mL/min and retention time was about 3 minutes.
Iontophoretic current was terminated after 4 hours.
Iontophoretic delivery of nicotinium dihydrochloride salt was also studied in 50 mM HEPES buffer, adjusted to pH 5.5 with NaOH.
The flux is calculated at steady state when current is present for the iontophoresis experiments.

The nature of data set [2]: Conductivity of donor solution. The data set is classed as physicochemical.
Where [3] appears, read: donor solution for iontophoresis, donor pH 5.5, 50 mM HEPES.

As for `CN1CCCC1c1cccnc1` (centres unmarked) [Base, nicotine], the “Nicotine permeation, iontophoresis versus passive delivery” value in data set [1] (both conditions evaluated (pH 5.5 and pH 8 buffers), FIGS. 1 and 2) is on record as “Iontophoresis enhanced nicotine permeation compared to passive nicotine delivery”. Moreover, where the note is “non-ionized form at pH 8 compared to monocationic form at pH 5.5”, the “Passive transport of nicotine, pH 8 versus pH 5.5” value is listed as “higher at pH 8”. Also, the Lagtime (passive permeation, donor pH 8) was 87 min. For the same compound, the Flux (passive permeation, donor pH 8, 1% nicotine, human skin) came to 0.1053 mg/cm^2-hr. Also, the Conductivity in data set [2] (donor solution for passive permeation, donor pH 8) is reported as 4.73 mS/cm.
In the case of `CN1CCCC1c1cccnc1.O=C(O)C(O)C(O)C(=O)O` (centres unmarked) [Bitartrate, nicotine bitartrate], in data set [1], the “Iontophoretic flux of nicotine versus passive delivery of nicotine base” value is “less than the flux from the passive delivery of nicotine base at pH 8”, the “Flux of nicotine after termination of current” value was “decreased sharply”, the Lagtime came to 10 min and the Flux is reported as 0.2073 mg/cm^2-hr. Also, the “Flux of nicotine, 50 mM HEPES buffer versus 500 mM citrate buffer” value in data set [1] (iontophoresis, 50 mM HEPES buffer pH 5.5) was “higher than the nicotine flux from a 500 mM citrate buffer”. Also, the Conductivity in data set [2] (setting [3]) was determined as 16.3 mS/cm. Besides, in data set [2] (in 50 mM HEPES buffer, pH 5.5), the “Conductivity of donor solution” value was 16300 μmhos/cm. The “Conductivity of donor solution” value in data set [2] (in 500 mM citrate buffer) is 66400 μmhos/cm.
`CN1CCCC1c1cccnc1.O=C(O)CC(O)(CC(=O)O)C(=O)O` [Citrate, nicotine citrate]: in data set [1], the Lagtime is 9 min; the Flux is 0.332 mg/cm^2-hr; the “Flux of nicotine, iontophoresis of salt versus passive permeation of nicotine base” value is “increased”; the “Lagtime during iontophoresis versus passive permeation of nicotine base” value is reported as “reduced”. In data set [2] (setting [3]), this compound had a Conductivity of 13.3 mS/cm.
On to `Br.Br.CN1CCCC1c1cccnc1` (centres unmarked) [HBr], for which, in data set [1], the Lagtime is listed as 63 min and the Flux is on record as 0.2771 mg/cm^2-hr. Besides, the Conductivity in data set [2] (setting [3]) is 25.9 mS/cm.
Turning to `CN1CCC[C@H]1c1cccnc1` [HCl, nicotinium dihydrochloride], in data set [1], the “Flux of nicotine after termination of current” value was “decreased sharply”, the Lagtime came out at 22 min and the Flux amounted to 0.2236 mg/cm^2-hr. Besides, the Conductivity in data set [2] (setting [3]) worked out at 15.4 mS/cm. Moreover, the “Conductivity of donor solution” value in data set [2] (in 50 mM HEPES buffer, pH 5.5) is recorded as 15400 μmhos/cm.
For the compound `CN1CCCC1c1cccnc1.O=C(O)/C=C\C(=O)O` (centres unmarked) [Maleate, nicotine maleate], in data set [1], the Lagtime is given as 4 min; the Flux was 0.2867 mg/cm^2-hr; the “Flux of nicotine, iontophoresis of salt versus passive permeation of nicotine base” value is “increased”; the “Lagtime during iontophoresis versus passive permeation of nicotine base” value is listed as “reduced”. For the same compound, the Conductivity in data set [2] (setting [3]) is 9.31 mS/cm.
In data set [1], `CN1CCCC1c1cccnc1.O=S(=O)(O)O.O=S(=O)(O)O` (centres unmarked) [SO4] came in with a Lagtime of 46 min and a Flux of 0.2554 mg/cm^2-hr. In addition, the Conductivity in data set [2] (setting [3]) is given as 20 mS/cm.
With nicotine hemisulfate, the “Iontophoretic flux of nicotine versus passive delivery of nicotine base” value in data set [1] was “less than the flux from the passive delivery of nicotine base at pH 8”.
